The values that follow come from the OligoGym collection.

Oligonucleotides are written 5' to 3', each unit as a sugar letter and its base; * is a phosphorothioate linkage, no mark a phosphodiester; rarer units and linkages stand in square brackets, end groups in braces. Plain capitals give the bases only. d = 2'-deoxy (DNA); r = 2'-OH (RNA)
Further: test concentration or dose not given here.

The data set deals with UBE2B. As to the kind of experiment: reporter assay of Huesken 2005. Conditions: siRNA.
With “sense rCrArGrCrArCrArGrCrUrUrUrArUrCrArGrGrAdTdT / antisense rUrCrCrUrGrArUrArArArGrCrUrGrUrGrCrUrGdCdC”, the normalised inhibition (eCFP-eYFP dual reporter) was 77.5%.

As to “sense rArUrGrGrUrArGrCrArUrArUrGrUrUrUrArGrAdTdT / antisense rUrCrUrArArArCrArUrArUrGrCrUrArCrCrArUdCdA”, the normalised inhibition (eCFP-eYFP dual reporter) came out at 69.4%. With “sense rArUrGrUrUrUrArGrArUrArUrCrCrUrUrCrArGdTdT / antisense rCrUrGrArArGrGrArUrArUrCrUrArArArCrArUdAdT” the figure was 46.7%.

With “sense rUrCrUrGrArArArArCrArArCrArUrCrArUrGrCdTdT / antisense rGrCrArUrGrArUrGrUrUrGrUrUrUrUrCrArGrAdTdG”, the normalised inhibition (eCFP-eYFP dual reporter) was determined as 48.3%. Then “sense rUrGrGrArUrGrArArCrCrGrArArUrCrCrUrArAdTdT / antisense rUrUrArGrGrArUrUrCrGrGrUrUrCrArUrCrCrAdGdC”, with 74.3%; and “sense rArCrCrArUrCrUrGrArArArArCrArArCrArUrCdTdT / antisense rGrArUrGrUrUrGrUrUrUrUrCrArGrArUrGrGrUdGdC”, with 50.8%; and “sense rUrCrCrUrUrCrArGrArArUrCrGrArUrGrGrArGdTdT / antisense rCrUrCrCrArUrCrGrArUrUrCrUrGrArArGrGrAdTdA”, with 50%. With “sense rArGrUrCrUrCrUrGrCrUrGrGrArUrGrArArCrCdTdT / antisense rGrGrUrUrCrArUrCrCrArGrCrArGrArGrArCrUdGdA” the figure was 53.1%; with “sense rCrArUrArUrGrArUrGrUrArUrCrUrUrCrUrArUdTdT / antisense rArUrArGrArArGrArUrArCrArUrCrArUrArUrGdTdT”, 83.9%; with “sense rArUrCrCrUrUrCrArGrArArUrCrGrArUrGrGrAdTdT / antisense rUrCrCrArUrCrGrArUrUrCrUrGrArArGrGrArUdAdT”, 77.2%. Regarding “sense rUrUrArArArCrUrArGrUrArArUrArGrArArUrUdTdT / antisense rArArUrUrCrUrArUrUrArCrUrArGrUrUrUrArAdAdA”, the normalised inhibition (eCFP-eYFP dual reporter) was determined as 46.7%.

On to “sense rUrUrCrArUrCrCrArArArUrGrUrGrUrArUrGrCdTdT / antisense rGrCrArUrArCrArCrArUrUrUrGrGrArUrGrArAdAdC”, for which the normalised inhibition (eCFP-eYFP dual reporter) is 46%. With “sense rGrUrUrUrCrGrGrCrCrArUrUrGrUrUrGrArArCdTdT / antisense rGrUrUrCrArArCrArArUrGrGrCrCrGrArArArCdTdC” the figure was 61.6%; with “sense rGrCrUrUrUrArUrCrArGrGrArArArArCrArArAdTdT / antisense rUrUrUrGrUrUrUrUrCrCrUrGrArUrArArArGrCdTdG”, 80.4%. Then “sense rUrUrUrCrArArGrCrGrGrUrUrArCrArArGrArGdTdT / antisense rCrUrCrUrUrGrUrArArCrCrGrCrUrUrGrArArAdTdC”, with 45.5%; and “sense rArArCrArUrCrArUrGrCrArGrUrGrGrArArUrGdTdT / antisense rCrArUrUrCrCrArCrUrGrCrArUrGrArUrGrUrUdGdT”, with 55%; and “sense rArGrArArArArGrArGrUrUrUrCrGrGrCrCrArUdTdT / antisense rArUrGrGrCrCrGrArArArCrUrCrUrUrUrUrCrUdCdA”, with 77.8%. Then “sense rGrCrArCrArGrCrUrUrUrArUrCrArGrGrArArAdTdT / antisense rUrUrUrCrCrUrGrArUrArArArGrCrUrGrUrGrCdTdG”, with 83.8%. The substance “sense rCrUrGrArArGrArArUrArUrCrCrArArArUrArAdTdT / antisense rUrUrArUrUrUrGrGrArUrArUrUrCrUrUrCrArGdAdA” showed a normalised inhibition (eCFP-eYFP dual reporter) of 80.1%. Then “sense rGrUrGrGrArArUrGrCrArGrUrUrArUrArUrUrUdTdT / antisense rArArArUrArUrArArCrUrGrCrArUrUrCrCrArCdTdG”, with 84.6%.

Regarding “sense rCrArGrGrCrArGrCrArCrArGrCrUrUrUrArUrCdTdT / antisense rGrArUrArArArGrCrUrGrUrGrCrUrGrCrCrUrGdGdC”, the normalised inhibition (eCFP-eYFP dual reporter) amounted to 75.1%. For “sense rUrUrUrUrCrUrGrArArGrArArUrArUrCrCrArAdTdT / antisense rUrUrGrGrArUrArUrUrCrUrUrCrArGrArArArAdTdT”, the normalised inhibition (eCFP-eYFP dual reporter) worked out at 85.3%. With “sense rArArUrArGrCrCrArGrGrCrArGrCrArCrArGrCdTdT / antisense rGrCrUrGrUrGrCrUrGrCrCrUrGrGrCrUrArUrUdGdG” the figure was 51%. Then “sense rArGrUrCrCrArGrCrCrArArUrArGrCrCrArGrGdTdT / antisense rCrCrUrGrGrCrUrArUrUrGrGrCrUrGrGrArCrUdGdT”, with 68.7%; and “sense rGrArUrGrUrArUrCrUrUrCrUrArUrCrUrUrArAdTdT / antisense rUrUrArArGrArUrArGrArArGrArUrArCrArUrCdAdT”, with 84.7%. As for “sense rUrArUrGrUrUrUrArGrArUrArUrCrCrUrUrCrAdTdT / antisense rUrGrArArGrGrArUrArUrCrUrArArArCrArUrAdTdG”, the normalised inhibition (eCFP-eYFP dual reporter) is 63.5%. Then “sense rUrArUrCrCrArArArArUrGrUrUrUrCrArUrCrCdTdT / antisense rGrGrArUrGrArArArCrArUrUrUrUrGrGrArUrAdAdA”, with 48.2%; and “sense rCrGrGrGrArUrUrUrCrArArGrCrGrGrUrUrArCdTdT / antisense rGrUrArArCrCrGrCrUrUrGrArArArUrCrCrCrGdCdA”, with 85.1%. Then “sense rArGrUrCrCrArArCrArUrArUrGrArUrGrUrArUdTdT / antisense rArUrArCrArUrCrArUrArUrGrUrUrGrGrArCrUdCdC”, with 83.6%; and “sense rCrArGrUrGrGrArArUrGrCrArGrUrUrArUrArUdTdT / antisense rArUrArUrArArCrUrGrCrArUrUrCrCrArCrUrGdCdA”, with 83.5%. With “sense rUrArUrCrUrUrArArCrArUrCrArArUrUrCrArGdTdT / antisense rCrUrGrArArUrUrGrArUrGrUrUrArArGrArUrAdGdA” the figure was 50.5%; with “sense rCrCrArCrCrArArCrUrGrUrUrArGrGrUrUrUrUdTdT / antisense rArArArArCrCrUrArArCrArGrUrUrGrGrUrGrGdTdT”, 69.7%; with “sense rUrCrArGrUrCrUrCrUrGrCrUrGrGrArUrGrArAdTdT / antisense rUrUrCrArUrCrCrArGrCrArGrArGrArCrUrGrAdAdT”, 62.4%. The substance “sense rArCrCrUrGrUrGrGrGrUrGrUrCrArGrUrGrGrCdTdT / antisense rGrCrCrArCrUrGrArCrArCrCrCrArCrArGrGrUdGdG” registered a normalised inhibition (eCFP-eYFP dual reporter) of 76.7%.

With “sense rArArCrCrGrArArUrCrCrUrArArCrArGrUrCrCdTdT / antisense rGrGrArCrUrGrUrUrArGrGrArUrUrCrGrGrUrUdCdA”, the normalised inhibition (eCFP-eYFP dual reporter) is 49.9%. Take “sense rCrArGrArArUrCrGrArUrGrGrArGrUrCrCrArAdTdT / antisense rUrUrGrGrArCrUrCrCrArUrCrGrArUrUrCrUrGdAdA”: the normalised inhibition (eCFP-eYFP dual reporter) stood at 86.3%. Then “sense rArUrArGrCrCrArGrGrCrArGrCrArCrArGrCrUdTdT / antisense rArGrCrUrGrUrGrCrUrGrCrCrUrGrGrCrUrArUdTdG”, with 71.2%; and “sense rArUrArUrGrArGrArArArArGrArGrUrUrUrCrGdTdT / antisense rCrGrArArArCrUrCrUrUrUrUrCrUrCrArUrArUdTdC”, with 46.3%. Then “sense rArArUrGrUrUrUrCrArUrCrCrArArArUrGrUrGdTdT / antisense rCrArCrArUrUrUrGrGrArUrGrArArArCrArUrUdTdT”, with 63.5%; and “sense rArUrGrCrArGrUrUrArUrArUrUrUrGrGrArCrCdTdT / antisense rGrGrUrCrCrArArArUrArUrArArCrUrGrCrArUdTdC”, with 53.2%; and “sense rArGrArArUrCrGrArUrGrGrArGrUrCrCrArArCdTdT / antisense rGrUrUrGrGrArCrUrCrCrArUrCrGrArUrUrCrUdGdA”, with 64.8%.

The substance “sense rArArUrCrGrArUrGrGrArGrUrCrCrArArCrArUdTdT / antisense rArUrGrUrUrGrGrArCrUrCrCrArUrCrGrArUrUdCdT” gave a normalised inhibition (eCFP-eYFP dual reporter) of 74.4%.

Substance “sense rArArArArGrArGrUrUrUrCrGrGrCrCrArUrUrGdTdT / antisense rCrArArUrGrGrCrCrGrArArArCrUrCrUrUrUrUdCdT” registered a normalised inhibition (eCFP-eYFP dual reporter) of 49.2%. Then “sense rArUrUrUrCrArArGrCrGrGrUrUrArCrArArGrAdTdT / antisense rUrCrUrUrGrUrArArCrCrGrCrUrUrGrArArArUdCdC”, with 78.2%; and “sense rUrArGrArUrArUrCrCrUrUrCrArGrArArUrCrGdTdT / antisense rCrGrArUrUrCrUrGrArArGrGrArUrArUrCrUrAdAdA”, with 47.9%; and “sense rArArUrUrCrArGrUrCrUrCrUrGrCrUrGrGrArUdTdT / antisense rArUrCrCrArGrCrArGrArGrArCrUrGrArArUrUdGdA”, with 60.8%. Take “sense rGrArArUrArUrGrArGrArArArArGrArGrUrUrUdTdT / antisense rArArArCrUrCrUrUrUrUrCrUrCrArUrArUrUrCdTdC”: the normalised inhibition (eCFP-eYFP dual reporter) was found to be 78.7%.

Substance “sense rGrUrArUrGrCrUrGrArUrGrGrUrArGrCrArUrAdTdT / antisense rUrArUrGrCrUrArCrCrArUrCrArGrCrArUrArCdAdC” showed a normalised inhibition (eCFP-eYFP dual reporter) of 75.7%.

For the substance “sense rGrCrArCrCrArUrCrUrGrArArArArCrArArCrAdTdT / antisense rUrGrUrUrGrUrUrUrUrCrArGrArUrGrGrUrGrCdGdC”, the normalised inhibition (eCFP-eYFP dual reporter) worked out at 74.2%.
